Reference: patent US11117900B2 (Vertex Pharmaceuticals Incorporated, priority 2012, dated 2021)

Test system: HCT116 colorectal cancer cells
Experiment: Cisplatin sensitization assay (96 h MTS cell viability);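 note: compound concentration needed to lower the IC50 of Cisplatin alone by a set fold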
Type: cell-based
Conditions: Cisplatin sensitization value
Method: Compounds can be screened for their ability to sensitize HCT116 colorectal cancer cells to Cisplatin using a 96 h cell viability (MTS) assay. […] Compounds and Cisplatin are then both added simultaneously to the cell media in 2-fold serial dilutions from a top final concentration of 10 μM as a full matrix of concentrations in a final cell volume of 200 μl, and the cells are then incubated at 37° C. in 5% CO2. After 96 h, 40 μl of MTS reagent (Promega G358a) is added to each well and the cells are incubated for 1 h at 37° C. in 5% CO2.
Compounds with a Cisplatin sensitization value of <0.02 μM are marked with “+++.” Compounds with a Cisplatin sensitization value >0.02 μM but <0.2 μM are marked with “++.” Compounds with a Cisplatin sensitization value >0.2 μM but <5 μM are marked with “+.”

Row | SMILES | Cisplatin Sensitization Assay
1 | Nc1nn2cc(F)cnc2c1C(=O)Nc1cnccc1N1CCN(C2CCOC2)CC1 (racemic) [I-N-19, (R,S)-2-amino-6-fluoro-N-(4-(4-(tetrahydrofuran-3-yl)piperazin-1-yl)pyridin-3-yl)pyrazolo[1,5-a]pyrimidine-3-carboxamide] | +++ (Compounds with a Cisplatin sensitization value of <0.02 μM are marked with “+++.”)
2 | N#CCc1cnc2c(C(=O)Nc3cnccc3OC3CCCNC3)c(N)nn2c1 (racemic) [I-O-2, (R,S)-2-amino-6-(cyanomethyl)-N-(4-(piperidin-3-yloxy)pyridin-3-yl)pyrazolo[1,5-a]pyrimidine-3-carboxamide] | ++ (Compounds with a Cisplatin sensitization value >0.02 μM but <0.2 μM are marked with “++.”)
3 | Nc1nn2cc(F)cnc2c1C(=O)Nc1cnccc1OC1CN2CCC1CC2 (racemic) [I-O-6, (R,S)-2-amino-6-fluoro-N-(4-(quinuclidin-3-yloxy)pyridin-3-yl)pyrazolo[1,5-a]pyrimidine-3-carboxamide] | +++ (Compounds with a Cisplatin sensitization value of <0.02 μM are marked with “+++.”)
4 | Nc1nn2cc(F)cnc2c1C(=O)Nc1cnccc1OC1CCOC1 (racemic) [I-O-15, (R,S)-2-amino-6-fluoro-N-(4-((tetrahydrofuran-3-yl)oxy)pyridin-3-yl)pyrazolo[1,5-a]pyrimidine-3-carboxamide] | +++ (Compounds with a Cisplatin sensitization value of <0.02 μM are marked with “+++.”)
5 | N#CCc1cnc2c(C(=O)Nc3cnccc3OC3CCOC3)c(N)nn2c1 (racemic) [I-O-37, (R,S)-2-amino-6-(cyanomethyl)-N-(4-((tetrahydrofuran-3-yl)oxy)pyridin-3-yl)pyrazolo[1,5-a]pyrimidine-3-carboxamide] | +++ (Compounds with a Cisplatin sensitization value of <0.02 μM are marked with “+++.”)
6 | CN1CCC(c2ccncc2NC(=O)c2c(N)nn3cc(F)cnc23)CC1 [I-C-1, 2-amino-6-fluoro-N-(4-(1-methylpiperidin-4-yl)pyridin-3-yl)pyrazolo[1,5-a]pyrimidine-3-carboxamide] | ++ (Compounds with a Cisplatin sensitization value >0.02 μM but <0.2 μM are marked with “++.”)
7 | Cc1ccncc1NC(=O)c1c(N)nn2cc(Cl)cnc12 [I-C-2, 2-amino-6-chloro-N-(4-methylpyridin-3-yl)pyrazolo[1,5-a]pyrimidine-3-carboxamide] | ++ (Compounds with a Cisplatin sensitization value >0.02 μM but <0.2 μM are marked with “++.”)
8 | Cc1ccncc1NC(=O)c1c(N)nn2cc(F)cnc12 [I-C-4, 2-amino-6-fluoro-N-(4-methylpyridin-3-yl)pyrazolo[1,5-a]pyrimidine-3-carboxamide] | ++ (Compounds with a Cisplatin sensitization value >0.02 μM but <0.2 μM are marked with “++.”)
9 | Nc1nn2cc(F)cnc2c1C(=O)Nc1cnccc1-c1ccccc1 [I-C-5, 2-amino-6-fluoro-N-(4-phenylpyridin-3-yl)pyrazolo[1,5-a]pyrimidine-3-carboxamide] | +++ (Compounds with a Cisplatin sensitization value of <0.02 μM are marked with “+++.”)
10 | N#CCc1cnc2c(C(=O)Nc3cnccc3-c3ccccc3)c(N)nn2c1 [I-C-6, 2-amino-6-(cyanomethyl)-N-(4-phenylpyridin-3-yl)pyrazolo[1,5-a]pyrimidine-3-carboxamide] | +++ (Compounds with a Cisplatin sensitization value of <0.02 μM are marked with “+++.”)
11 | Nc1nn2cc(F)cnc2c1C(=O)Nc1cncc2c1CCNC2 [I-C-7, 2-amino-6-fluoro-N-(5,6,7,8-tetrahydro-2,7-naphthyridin-4-yl)pyrazolo[1,5-a]pyrimidine-3-carboxamide] | ++ (Compounds with a Cisplatin sensitization value >0.02 μM but <0.2 μM are marked with “++.”)
12 | CN1CCc2c(cncc2NC(=O)c2c(N)nn3cc(F)cnc23)C1 [I-C-8, 2-amino-6-fluoro-N-(7-methyl-5,6,7,8-tetrahydro-2,7-naphthyridin-4-yl)pyrazolo[1,5-a]pyrimidine-3-carboxamide] | + (Compounds with a Cisplatin sensitization value >0.2 μM but <5 μM are marked with “+.”)
13 | C[N+]1([O-])CCc2c(cncc2NC(=O)c2c(N)nn3cc(F)cnc23)C1 (stereo not drawn) [I-C-9, 5-(2-amino-6-fluoropyrazolo[1,5-a]pyrimidine-3-carboxamido)-2-methyl-1,2,3,4-tetrahydro-2,7-naphthyridine 2-oxide] | + (Compounds with a Cisplatin sensitization value >0.2 μM but <5 μM are marked with “+.”)
14 | Nc1nn2cc(F)cnc2c1C(=O)Nc1cnccc1C1CCN(C2COC2)CC1 [I-C-10, 2-amino-6-fluoro-N-(4-(1-(oxetan-3-yl)piperidin-4-yl)pyridin-3-yl)pyrazolo[1,5-a]pyrimidine-3-carboxamide] | +++ (Compounds with a Cisplatin sensitization value of <0.02 μM are marked with “+++.”)
15 | Nc1nn2cc(Cl)cnc2c1C(=O)Nc1cnccc1C1CCN(C2COC2)CC1 [I-C-11, 2-amino-6-chloro-N-(4-(1-(oxetan-3-yl)piperidin-4-yl)pyridin-3-yl)pyrazolo[1,5-a]pyrimidine-3-carboxamide] | +++ (Compounds with a Cisplatin sensitization value of <0.02 μM are marked with “+++.”)
16 | Nc1nn2cc(F)cnc2c1C(=O)Nc1cncc(F)c1C1=CCN(C2COC2)CC1 [I-C-12, 2-amino-6-fluoro-N-(5-fluoro-1′-(oxetan-3-yl)-1′,2′,3′,6′-tetrahydro-[4,4′-bipyridin]-3-yl)pyrazolo[1,5-a]pyrimidine-3-carboxamide] | +++ (Compounds with a Cisplatin sensitization value of <0.02 μM are marked with “+++.”)
17 | Nc1nn2cc(F)cnc2c1C(=O)Nc1cncc(F)c1C1CCN(C2COC2)CC1 [I-C-13, 2-amino-6-fluoro-N-(5-fluoro-4-(1-(oxetan-3-yl)piperidin-4-yl)pyridin-3-yl)pyrazolo[1,5-a]pyrimidine-3-carboxamide] | ++ (Compounds with a Cisplatin sensitization value >0.02 μM but <0.2 μM are marked with “++.”)
18 | CN1CCC(c2c(F)cncc2NC(=O)c2c(N)nn3cc(F)cnc23)CC1 [I-C-14, 2-amino-6-fluoro-N-(5-fluoro-4-(1-methylpiperidin-4-yl)pyridin-3-yl)pyrazolo[1,5-a]pyrimidine-3-carboxamide] | + (Compounds with a Cisplatin sensitization value >0.2 μM but <5 μM are marked with “+.”)
19 | Nc1nn2cc(F)cnc2c1C(=O)Nc1cnccc1-c1cccnc1 [I-C-15, N-([3,4′-bipyridin]-3′-yl)-2-amino-6-fluoropyrazolo[1,5-a]pyrimidine-3-carboxamide] | ++ (Compounds with a Cisplatin sensitization value >0.02 μM but <0.2 μM are marked with “++.”)
20 | CN1CCC(C(=O)N2CCC(c3ccncc3NC(=O)c3c(N)nn4cc(F)cnc34)CC2)CC1 [I-C-16, 2-amino-6-fluoro-N-(4-(1-(1-methylpiperidine-4-carbonyl)piperidin-4-yl)pyridin-3-yl)pyrazolo[1,5-a]pyrimidine-3-carboxamide] | + (Compounds with a Cisplatin sensitization value >0.2 μM but <5 μM are marked with “+.”)
21 | CN1CCN(C(=O)N2CCC(c3ccncc3NC(=O)c3c(N)nn4cc(F)cnc34)CC2)CC1 [I-C-17, 2-amino-6-fluoro-N-(4-(1-(4-methylpiperazine-1-carbonyl)piperidin-4-yl)pyridin-3-yl)pyrazolo[1,5-a]pyrimidine-3-carboxamide] | ++ (Compounds with a Cisplatin sensitization value >0.02 μM but <0.2 μM are marked with “++.”)
22 | Nc1nn2cc(F)cnc2c1C(=O)Nc1cnccc1C1CCN(C(=O)C23CCN(CC2)CC3)CC1 [I-C-18, 2-amino-6-fluoro-N-(4-(1-(quinuclidine-4-carbonyl)piperidin-4-yl)pyridin-3-yl)pyrazolo[1,5-a]pyrimidine-3-carboxamide] | + (Compounds with a Cisplatin sensitization value >0.2 μM but <5 μM are marked with “+.”)
23 | CN1CCN(C(=O)c2ccc(-c3ccncc3NC(=O)c3c(N)nn4cc(F)cnc34)cn2)CC1 [I-C-19, 2-amino-6-fluoro-N-(6-(4-methylpiperazine-1-carbonyl)-[3,4′-bipyridin]-3′-yl)pyrazolo[1,5-a]pyrimidine-3-carboxamide] | ++ (Compounds with a Cisplatin sensitization value >0.02 μM but <0.2 μM are marked with “++.”)
24 | Cc1ncccc1-c1ccncc1NC(=O)c1c(N)nn2cc(F)cnc12 [I-C-20, 2-amino-6-fluoro-N-(2-methyl-[3,4′-bipyridin]-3′-yl)pyrazolo[1,5-a]pyrimidine-3-carboxamide] | +++ (Compounds with a Cisplatin sensitization value of <0.02 μM are marked with “+++.”)
25 | CN1CCN(c2ccc(-c3ccncc3NC(=O)c3c(N)nn4cc(F)cnc34)cn2)CC1 [I-C-21, 2-amino-6-fluoro-N-(6-(4-methylpiperazin-1-yl)-[3,4′-bipyridin]-3′-yl)pyrazolo[1,5-a]pyrimidine-3-carboxamide] | +++ (Compounds with a Cisplatin sensitization value of <0.02 μM are marked with “+++.”)
26 | Cc1ccc(-c2ccncc2NC(=O)c2c(N)nn3cc(F)cnc23)cn1 [I-C-22, 2-amino-6-fluoro-N-(6-methyl-[3,4′-bipyridin]-3′-yl)pyrazolo[1,5-a]pyrimidine-3-carboxamide] | ++ (Compounds with a Cisplatin sensitization value >0.02 μM but <0.2 μM are marked with “++.”)
27 | CN1CCC(c2ccncc2NC(=O)c2c(N)nn3cc(C(C)(C)C#N)cnc23)CC1 [I-C-23, 2-amino-6-(2-cyanopropan-2-yl)-N-(4-(1-methylpiperidin-4-yl)pyridin-3-yl)pyrazolo[1,5-a]pyrimidine-3-carboxamide] | + (Compounds with a Cisplatin sensitization value >0.2 μM but <5 μM are marked with “+.”)
